Data on 36 compounds can be found in ChEMBL document CHEMBL1156286, “Inhibition of eEF2-K by thieno[2,3-b]pyridine analogues” (Bioorg Med Chem Lett, 2010).

Structures are written as SMILES.

For test [1], the target named is T1, Eukaryotic elongation factor 2 kinase (Homo sapiens, UniProt O00418).
T1 sequence (O00418 whole entry): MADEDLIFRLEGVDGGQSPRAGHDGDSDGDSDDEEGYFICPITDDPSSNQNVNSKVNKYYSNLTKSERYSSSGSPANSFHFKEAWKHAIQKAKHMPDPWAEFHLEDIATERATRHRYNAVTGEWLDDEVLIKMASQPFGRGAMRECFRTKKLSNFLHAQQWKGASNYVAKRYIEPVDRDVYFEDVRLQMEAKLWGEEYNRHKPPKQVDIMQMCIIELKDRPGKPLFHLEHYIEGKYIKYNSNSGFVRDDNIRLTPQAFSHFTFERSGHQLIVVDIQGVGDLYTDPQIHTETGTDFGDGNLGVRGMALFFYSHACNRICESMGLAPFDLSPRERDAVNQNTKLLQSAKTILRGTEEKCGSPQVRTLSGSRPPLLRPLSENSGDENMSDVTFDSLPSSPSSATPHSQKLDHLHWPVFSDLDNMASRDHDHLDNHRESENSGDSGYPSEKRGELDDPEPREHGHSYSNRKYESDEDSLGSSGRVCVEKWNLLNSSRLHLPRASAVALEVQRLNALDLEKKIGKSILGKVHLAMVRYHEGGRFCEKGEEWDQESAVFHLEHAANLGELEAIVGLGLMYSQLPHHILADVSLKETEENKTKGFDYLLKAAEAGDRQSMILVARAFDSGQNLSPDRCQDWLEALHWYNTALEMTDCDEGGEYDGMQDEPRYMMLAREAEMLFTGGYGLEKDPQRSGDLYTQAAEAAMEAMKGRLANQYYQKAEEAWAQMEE
Kind of test: Inhibition of GST tagged eEf2K expressed in Escherichia coli by fluorometric method.

For the next test, the system named is A549. Kind of test: Cytotoxicity against human A549 cells after 72 hrs. It is filed as functional, cell-based. Particulars: A549, 72 h.
A further test relates to HCT-116. In words: Cytotoxicity against human HCT116 cells after 72 hrs. The following applies: HCT-116, 72 h. It is filed as functional, cell-based.

Regarding `NC(=O)c1sc2nc3c(cc2c1N)CCCCCC3`, the midpoint of inhibition in test [1], the IC50, lay at 2.5 µM. The EC50 with A549 and in the test on HCT-116 was 38 µM in each case.
In the case of `CC(C)Cc1c2c(nc3sc(C(N)=O)c(N)c13)CCCCCC2`, the IC50 (usually the concentration needed to halve the response being measured) in test [1] was 0.86 µM.
`NC(=O)c1sc2nc3c(c(C4CC4)c2c1N)CCCCCC3` showed an IC50 in test [1] of 2 µM. Against the preceding compound, the IC50 is about 2.3-fold higher.
Compound `NC(=O)c1sc2nc3c(c(-c4ccc(C(F)(F)F)o4)c2c1N)CCCCCC3` registered an IC50 in test [1] of 0.3 µM.
Still for that read-out and setting: the value for `NC(=O)c1sc2nc(CC3CCCCC3)cc(-c3ccco3)c2c1N` was more than 10 µM; that for `NC(=O)c1sc2nc3c(c(-c4ccoc4)c2c1N)CCCCCC3` was 1.1 µM; that for `COC(=O)c1oc(-c2c3c(nc4sc(C(N)=O)c(N)c24)CCCCCC3)cc1C` was more than 20 µM.
As to `Nc1ncnc2c1sc1nc3c(c(-c4ccco4)c12)CCCCC3`, in test [1], inhibition was half-maximal at 4.7 µM (IC50). For the same compound, the results for the EC50 in the test with A549 and in the test on HCT-116 were 17 µM and more than 100 µM, respectively.
`COc1ccc(-c2cc(-c3ccco3)c3c(N)c(C(N)=O)sc3n2)c(OC)c1` showed an IC50 in test [1] of more than 10 µM.
The same measure, in the same setting: the value for `NC(=O)c1sc2nc3c(c(-c4ccccc4)c2c1N)CCCCCC3` was more than 20 µM.
The compound `NC(=O)c1sc2nc3c(c(-c4nccs4)c2c1N)CCCCCC3` yielded an IC50 in test [1] of 1.4 µM.
The same measure, in the same setting: the value for `Cc1cccnc1-c1c2c(nc3sc(C(N)=O)c(N)c13)CCCCCC2` was more than 20 µM; that for `NC(=O)c1sc2nc3c(c(CCc4ccccc4)c2c1N)CCCCCC3` was more than 20 µM.
In test [1], `COc1ccc(F)c(-c2c3c(nc4sc(C(N)=O)c(N)c24)CCCCCC3)c1` showed an IC50 of 1.3 µM. That is a single-digit micromolar value.
In turn, `NC(=O)c1sc2nc3c(c(-c4cc5ccccc5o4)c2c1N)CCCCCC3` yielded an IC50 in test [1] of 0.33 µM.
In turn, `CCc1ccc(-c2c3c(nc4sc(C(N)=O)c(N)c24)CCCCCC3)o1` displayed an IC50 in test [1] of 0.66 µM.
As to `Nc1ncnc2c1sc1nc(N3CCOCC3)c3c(c12)CCCC3`, it took 0.22 µM to reach half-maximal inhibition in test [1] (IC50). In addition, the EC50 (usually the concentration at which the effect is half-maximal) in the test on A549 came out at 6.7 µM; in the test on HCT-116, 29 µM.
In test [1], `Nc1ncnc2c1sc1nc3c(cc12)CCCCCCC3` returned an IC50 of 3.7 µM.
On the same count and under the same terms, in the case of `Nc1ncnc2c1sc1nc3c(c(-c4ccco4)c12)CCCCCCC3` it was 0.35 µM; in that of `NC(=O)c1sc2nc3c(c(-c4ccc(CO)o4)c2c1N)CCCCCC3`, 0.8 µM; in that of `Cc1cc(-c2c3c(nc4sc(C(N)=O)c(N)c24)CCCCCC3)oc1C`, 1.1 µM.
Still for that read-out and setting: in the case of `Cc1c2c(nc3sc(C(N)=O)c(N)c13)CCCCCC2` it was 1.1 µM.
For the compound `NC(=O)c1sc2nc3c(c(/C=C/c4ccco4)c2c1N)CCCCCC3`, in test [1], half-maximal inhibition (IC50) required 0.32 µM. Further, the EC50 in the test on A549 is 15 µM; in the test with HCT-116, 19 µM.
`Cc1ccsc1-c1c2c(nc3sc(C(N)=O)c(N)c13)CCCCCC2` had an IC50 in test [1] of 0.46 µM. This lies in the sub-micromolar range.
`Cc1cccc(-c2c3c(nc4sc(C(N)=O)c(N)c24)CCCCCC3)c1`: in test [1], the IC50 is 1.2 µM.
Still for that read-out and setting: the value for `Cn1cccc1-c1c2c(nc3sc(C(N)=O)c(N)c13)CCCCCC2` was 0.99 µM; that for `COc1ccc(Cc2cc(-c3ccco3)c3c(N)c(C(N)=O)sc3n2)c(OC)c1` was more than 10 µM.
The compound `NC(=O)c1sc2nc3c(c(-c4ccco4)c2c1N)CCCCCCC3` had an EC50 in the test on HCT-116 of 17 µM. This lies in the double-digit micromolar range.
In test [1], `NC(=O)c1sc2nc3c(c(-c4ccc(Cl)c(Cl)c4)c2c1N)CCCCCC3` yielded an IC50 of 0.99 µM. In other words, the sub-micromolar range.
Consider `NC(=O)c1sc2nc3c(c(-c4ccco4)c2c1N)CCCCCCCC3`, for which the IC50 in test [1] is more than 20 µM.
Still for that read-out and setting: the value for `NC(=O)c1sc2nc3c(c(-c4ccc(Cl)cc4)c2c1N)CCCCCC3` was 1.1 µM.
As for `NC(=O)c1sc2nc3c(c(-c4ccco4)c2c1N)CCCCC3`, the IC50 in test [1] came out at 1.1 µM.
Consider `NC(=O)c1sc2nc3c(c(-c4ccc(Cl)o4)c2c1N)CCCCCC3`, for which the IC50 in test [1] was determined as 0.28 µM. For the same compound, the EC50 in the test on A549 is 64 µM; in the test with HCT-116, 100 µM.
Compound `NC(=O)c1sc2nc3c(c(-c4ccco4)c2c1N)CCCCCC3` had an IC50 in test [1] of 0.64 µM.
On the same count and under the same terms, in the case of `CC1CCCc2c1nc1sc(C(N)=O)c(N)c1c2-c1ccco1` (racemic) it was more than 20 µM; in that of `CC(C)=CCCC(C)c1c2c(nc3sc(C(N)=O)c(N)c13)CCCCCC2` (racemic), 10 µM.
